Entries after “also recorded” stand apart in the source; their conditions may differ.
Legend:
[1] = system: pinacidil induced DMR signal in HepG2C3A cells; assay: Label-free RWG biosensor DMR assay, modulation of the pinacidil induced DMR signal; type: cell-based, human; conditions: pre-incubation with compound, pinacidil 40 μM
Experimental: Transfection of siRNAs was performed using N-TER Nanoparticle siRNA Transfection System (Cat#N2913) from Sigma-Aldrich Inc. following the manufacturer's instructions. Briefly, 5000 cells were plated in each well of Epic 384-well plates. Cells were transfected with 50 nM siRNA the next day and incubated in siRNA containing medium for 24 hrs before replaced with fresh cell culture medium. Epic cell assay was performed 48 hours after transfection.
(§1) Epic® wavelength interrogation system (Corning Inc., Corning, N.Y.) was used for whole cell sensing. This system consists of a temperature-control unit, an optical detection unit, and an on-board liquid handling unit with robotics. The detection unit is centered on integrated fiber optics, and enables kinetic measures of cellular responses with a time interval of ˜15sec. The compound solutions were introduced by using the on-board liquid handling unit (i.e., pippetting).
The RWG biosensor is capable of detecting minute changes in local index of refraction near the sensor surface. Since the local index of refraction within a cell is a function of density and its distribution of biomass (e.g., proteins, molecular complexes), the biosensor exploits its evanescent wave to non-invasively detect ligand-induced dynamic mass redistribution in native cells. The evanescent wave extends into the cells and exponentially decays over distance, leading to a characteristic sensing volume of ˜150 nm, implying that any optical response mediated through the receptor activation only represents an average over the portion of the cell that the evanescent wave is sampling. The aggregation of many cellular events downstream the receptor activation determines the kinetics and amplitudes of a ligand-induced DMR.
For biosensor cellular assays, compound solutions were made by diluting the stored concentrated solutions with the HBSS (1× Hanks balanced salt solution, plus 20 mM Hepes, pH 7.1), and transferred into a 384well polypropylene compound storage plate to prepare a compound source plate. Two compound source plates were made separately when a two-step assay was performed. In parallel, the cells were washed twice with the HBSS and maintained in 30 μl of the HBSS to prepare a cell assay plate. Both the cell assay plate and the compound source plate(s) were then incubated in the hotel of the reader system. After incubation the baseline wavelengths of all biosensors in the cell assay microplate were recorded and normalized to zero. Afterwards, a 2 to 10 min continuous recording was carried out to establish a baseline, and to ensure that the cells reached a steady state. Cellular responses were then triggered by transferring 10 μl of the compound solutions into the cell assay plate using the on-board liquid handler.
All studies were carried out under controlled temperature (28° C.). At least two independent sets of experiments, each with at least three replicates, were performed.

[2] = system: mito-KATP channels in HepG2C3A cells; assay: Label-free RWG biosensor (Epic) DMR cellular assay, agonism mode; type: cell-based, human; conditions: 28° C.
Excerpt: as §1
The RWG biosensor is capable of detecting minute changes in local index of refraction near the sensor surface. Since the local index of refraction within a cell is a function of density and its distribution of biomass (e.g., proteins, molecular complexes), the biosensor exploits its evanescent wave to non-invasively detect ligand-induced dynamic mass redistribution in native cells. […]
For biosensor cellular assays, compound solutions were made by diluting the stored concentrated solutions with the HBSS (1× Hanks balanced salt solution, plus 20 mM Hepes, pH 7.1), and transferred into a 384well polypropylene compound storage plate to prepare a compound source plate. […] Both the cell assay plate and the compound source plate(s) were then incubated in the hotel of the reader system. After incubation the baseline wavelengths of all biosensors in the cell assay microplate were recorded and normalized to zero. […]

Q: How did the “effect on the pinacidil induced DMR signal” value (from here on “effect”) [1] turn out when `N#C/C(=C/c1ccc(O)c(O)c1)C(=O)NCc1ccccc1` [AG490] was run?
A: The value was “dose-dependently reduced”.

Q: Which “effect” value [1] does the source give for `C1CCC(N=C(NC23CC4CC(CC(C4)C2)C3)N2CCOCC2)CC1.Cl` [U-37883A] here?
A: The value was “no effect”.

Q: `C[C@@H](N)[C@H]1CC[C@H](C(=O)Nc2ccncc2)CC1` [Y-27632] was tested. Which “effect” value [1] did it give?
A: The value was “reduced the pinacidil induced DMR signal dose-dependently”.

Q: With `C=C1[C@@H](C)[C@H]2[C@H](Cc3ccccc3)NC(=O)[C@]23OC(=O)/C=C/[C@H](O)CCC[C@@H](C)C/C=C/[C@H]3[C@@H]1O` [cytochalasin B] as the compound, how does the “effect” value [1] read?
A: Its value is “dose-dependently reduce”.

Q: How did the “effect” value [1] turn out when `C/C1=C/C(=O)O[C@@H]2C[C@@H](CC[C@H](C)/C=C\C=C\CC1)O[C@@](O)([C@@H]1CSC(=O)N1)C2` [latrunculin A] was run?
A: The value was “dose-dependently reduce”.

Q: Which “pinacidil induced DMR signal (amplitudes and kinetics)” value [2] does the source give for `CC(N/C(=N\C#N)Nc1ccncc1)C(C)(C)C` (centres unmarked) [pinacidil] here?
A: Its value is “robust; also recorded: concentration dependent”.

Q: `CCCCNC(=O)NS(=O)(=O)c1ccc(C)cc1` [tobutamide] was tested. Which “effect” value [1] did it give?
A: Its value is “dose-dependently inhibited”.

Q: How did the “effect” value [1] turn out when `Cc1ccc(S(=O)(=O)NC(=O)NN2CCCCCC2)cc1` [tolazamide] was run?
A: Its value is “dose-dependent inhibition; also recorded: dose-dependently inhibited”.

Reference: patent US20110246078A1, “MITOCHONDRIA KATP ION CHANNEL AS A DRUG TARGET FOR PREVENTING LIVER DISEASES AND METHODS TO SCREEN MITOCHONDRIA KATP MODULATORS” (priority 2010, published 2011)
